The source of these data is EP4389749A1, “SUBSTITUTED 3,7-DIHYDRO-1H-PURINE-2,6-DIONES AND USE THEREOF” (invIOs GmbH, priority 2022, dated 2024).

pEC50: −log10 of the molar value. Read-outs that look alike come from different tables or passages of the source.

The test system of experiment [1] is CD4+ T-cells. Nature of the experiment: Immunostimulation assay with anti-CD3/28 stimulated T-cells, CD69 expression by flow cytometry. The experiment is classed as cell-based, human. The procedure:
(§1) Selection of potent compounds based on structure activity relation (SAR) using human, anti-CD3/28 stimulated T-cells. Enhanced activation of stimulated T-cells is measured by CD69 expression by flowcytometry.
(§2) White blood cell enriched buffy coats were ordered from the Austrian red cross, diluted with PBS to a total volume of 480 ml, 30 ml transferred to 50ml falcons and 11 ml lymphoprep added. Cell suspensions were centrifuged for 20 min at 2200 rpm and the PBMC containing layer transferred, three times washed with PBS and counted.
(§3) 10^7 PBMCs were magnetically labeled with CD4 and CD8 microbeads according to manufacturer's instructions and separated using autoMACS device. For dose response experiments with purified CD4+CD8+ T-cells 80000 cells were seeded per 96-well flat bottom cell culture dish.
(§4) 10 mM compounds of the invention stocks were further diluted using DMSO and equal amounts transferred to T-cell containing 96-wells. Final concentrations tested were: 30 µM, 10 µM, 3 µM, 1 µM, 0.3 µM, 0.1 µM, 0.03 µM, 0.01 µM, 0.003 µM and 0.001 µM.
(§5) For the stimulation assays 80.000 purified CD4+ and CD8+ T-cells were seeded per 96-well and incubated with 1 µg/ml anti-CD3, 1 µg/ml anti-CD28 and compounds of the invention ranging from 0.001 µM to 30 µM. DMSO only wells served as control to determine minimal T-cell activation upon stimulation and CD3/28 coupled Dynabeads were used to determine the maximal activation of T-cells. Cells were cultured for 16 hours in a humidified incubator at 37 °C and 5 % CO2.
(§6) T-cells were stained for surface antigens (anti-CD4 and anti-CD8) and cell activation markers (anti-CD25 and anti-CD69). Additionally, a fixable viability dye was used to stain viable cells. Staining was performed for 15 minutes and cells analyzed using a Fortessa flow cytometer and FlowJo Software. EC50s were calculated using GraphPad Prism® and a variable slope model (agonist vs. response - variable slope).
(Flow cytometry measures light scatter and fluorescence of single cells or particles in a stream.)

The test system of experiment [2] is CD8+ T-cells. The experiment is described as above. The experiment is classed as cell-based, human. The procedure: as §1, §2, §3, §4, §5, §6
The mark [3] stands for this setting: T-cell, purified human CD4+ and CD8+ T-cells, 1 µg/ml anti-CD3, 1 µg/ml anti-CD28, 16 hours, surface FACS, read-out: EC50 CD4+.
The mark [4] stands for this setting: T-cell, purified human CD4+ and CD8+ T-cells, 1 µg/ml anti-CD3, 1 µg/ml anti-CD28, 16 hours, surface FACS, read-out: EC50 CD8+.

A word on the pEC50: it is −log10 of the EC50, conventionally taken in molar units. With `COc1cc(-c2nc3c(c(=O)[nH]c(=O)n3CC(C)O)n2C)ccc1OCc1ccccc1` (stereo not drawn) [Compound 16, 8-(4-(benzyloxy)-3-methoxyphenyl)-3-(2-hydroxypropyl)-7-methyl-3,7-dihydro-1H-purine-2,6-dione], the pEC50 in experiment [1] (setting [3]) is 6.00 to 6.30; in experiment [2] (setting [4]) it was 5.30 to 6.00.

With `Cn1c(-c2ccc(OCc3ccc(C(F)F)cc3)c(F)c2)nc2c1c(=O)[nH]c(=O)n2CC(O)C(F)(F)F` (stereo not drawn) [Compound 18], the pEC50 was less than 5.30 in experiment [1] (16 h) and 5.30 to 6.00 in experiment [2] (16 h).

Consider `COc1cc(-c2nc3c(c(=O)[nH]c(=O)n3CC(O)C(F)F)n2C)ccc1OCc1ccc(C)cc1` (stereo not drawn) [Compound 19, 3-(3,3-difluoro-2-hydroxypropyl)-8-(3-methoxy-4-((4-methylbenzyl)oxy)phenyl)-7-methyl-3,7-dihydro-1H-purine-2,6-dione], for which the pEC50 is 6.00 to 6.30 in experiment [1] (setting [3]) and more than 7.00 in experiment [2] (setting [4]).

On to `COc1cc(-c2nc3c(c(=O)[nH]c(=O)n3CC(C)(C)O)n2C)ccc1OCc1ccccc1` [Compound 52, 8-(4-(benzyloxy)-3-methoxyphenyl)-3-(2-hydroxy-2-methylpropyl)-7-methyl-3,7-dihydro-1H-purine-2,6-dione], for which the pEC50 in experiment [1] (setting [3]) was 5.30 to 6.00; in experiment [2] (setting [4]), less than 5.30.

In the case of `COc1cc(-c2nc3c(c(=O)[nH]c(=O)n3C[C@H](O)C(F)F)n2C)ccc1OCc1ccccc1` [Compound 53, (S)-8-(4-(benzyloxy)-3-methoxyphenyl)-3-(3,3-difluoro-2-hydroxypropyl)-7-methyl-3,7-dihydro-1H-purine-2,6-dione], the pEC50 in experiment [1] (setting [3]) and in experiment [2] (setting [4]) was more than 7.00 in each case.

Turning to `COCC(O)Cn1c(=O)[nH]c(=O)c2c1nc(-c1ccc(OCc3ccccc3)c(OC)c1)n2C` (stereo not drawn) [Compound 54, 8-(4-(benzyloxy)-3-methoxyphenyl)-3-(2-hydroxy-3-methoxypropyl)-7-methyl-3,7-dihydro-1H-purine-2,6-dione], the pEC50 in experiment [1] (setting [3]) and in experiment [2] (setting [4]) was 5.30 to 6.00 throughout.

As for `COc1cc(-c2nc3c(c(=O)[nH]c(=O)n3CC(O)CO)n2C)ccc1OCc1ccccc1` (stereo not drawn) [Compound 55, 8-(4-(benzyloxy)-3-methoxyphenyl)-3-(2,3-dihydroxypropyl)-7-methyl-3,7-dihydro-1H-purine-2,6-dione], the pEC50 in experiment [1] (setting [3]) and in experiment [2] (setting [4]) was 5.30 to 6.00 each time.

For the molecule `COc1cc(-c2nc3c(c(=O)[nH]c(=O)n3CC(C)CO)n2C)ccc1OCc1ccccc1` (stereo not drawn) [Compound 56, 8-(4-(benzyloxy)-3-methoxyphenyl)-3-(3-hydroxy-2-methylpropyl)-7-methyl-3,7-dihydro-1H-purine-2,6-dione], the pEC50 in experiment [1] (setting [3]) and in experiment [2] (setting [4]) was 6.30 to 7.00 throughout.

Turning to `COc1cc(-c2nc3c(c(=O)[nH]c(=O)n3CC(O)C(F)(F)F)n2C)ccc1OCc1ccccc1` (stereo not drawn) [Compound 57, 8-(4-(benzyloxy)-3-methoxyphenyl)-7-methyl-3-(3,3,3-trifluoro-2-hydroxypropyl)-3,7-dihydro-1H-purine-2,6-dione], the negative logarithm of the EC50 (pEC50) in experiment [1] (setting [3]) was 6.00 to 6.30; in experiment [2] (setting [4]) it was 5.30 to 6.00.

In the case of `COc1cc(-c2nc3c(c(=O)[nH]c(=O)n3CC(O)CF)n2C)ccc1OCc1ccccc1` (stereo not drawn) [Compound 58, 8-(4-(benzyloxy)-3-methoxyphenyl)-3-(3-fluoro-2-hydroxypropyl)-7-methyl-3,7-dihydro-1H-purine-2,6-dione], the pEC50 is 6.00 to 6.30 in experiment [1] (setting [3]) and 6.30 to 7.00 in experiment [2] (setting [4]).

`CCC(O)Cn1c(=O)[nH]c(=O)c2c1nc(-c1ccc(OCc3ccccc3)c(OC)c1)n2C` (stereo not drawn) [Compound 59, 8-(4-(benzyloxy)-3-methoxyphenyl)-3-(2-hydroxybutyl)-7-methyl-3,7-dihydro-1H-purine-2,6-dione]: the pEC50 in experiment [1] (setting [3]) and in experiment [2] (setting [4]) was 5.30 to 6.00 each time.

As to `COc1cc(-c2nc3c(c(=O)[nH]c(=O)n3C[C@@H](C)O)n2C)ccc1OCc1ccccc1` [Compound 60, (R)-8-(4-(benzyloxy)-3-methoxyphenyl)-3-(2-hydroxypropyl)-7-methyl-3,7-dihydro-1H-purine-2,6-dione], the pEC50 in experiment [1] (setting [3]) and in experiment [2] (setting [4]) was 5.30 to 6.00 throughout.
